Where two headings read alike, the source gives them in different places.
Molecular target: T1, human GC-A (Homo sapiens, UniProt P16066)
T1 construct: expressed in transfected cells; host or cells: CHO cells
T1 sequence (P16066 33-1061): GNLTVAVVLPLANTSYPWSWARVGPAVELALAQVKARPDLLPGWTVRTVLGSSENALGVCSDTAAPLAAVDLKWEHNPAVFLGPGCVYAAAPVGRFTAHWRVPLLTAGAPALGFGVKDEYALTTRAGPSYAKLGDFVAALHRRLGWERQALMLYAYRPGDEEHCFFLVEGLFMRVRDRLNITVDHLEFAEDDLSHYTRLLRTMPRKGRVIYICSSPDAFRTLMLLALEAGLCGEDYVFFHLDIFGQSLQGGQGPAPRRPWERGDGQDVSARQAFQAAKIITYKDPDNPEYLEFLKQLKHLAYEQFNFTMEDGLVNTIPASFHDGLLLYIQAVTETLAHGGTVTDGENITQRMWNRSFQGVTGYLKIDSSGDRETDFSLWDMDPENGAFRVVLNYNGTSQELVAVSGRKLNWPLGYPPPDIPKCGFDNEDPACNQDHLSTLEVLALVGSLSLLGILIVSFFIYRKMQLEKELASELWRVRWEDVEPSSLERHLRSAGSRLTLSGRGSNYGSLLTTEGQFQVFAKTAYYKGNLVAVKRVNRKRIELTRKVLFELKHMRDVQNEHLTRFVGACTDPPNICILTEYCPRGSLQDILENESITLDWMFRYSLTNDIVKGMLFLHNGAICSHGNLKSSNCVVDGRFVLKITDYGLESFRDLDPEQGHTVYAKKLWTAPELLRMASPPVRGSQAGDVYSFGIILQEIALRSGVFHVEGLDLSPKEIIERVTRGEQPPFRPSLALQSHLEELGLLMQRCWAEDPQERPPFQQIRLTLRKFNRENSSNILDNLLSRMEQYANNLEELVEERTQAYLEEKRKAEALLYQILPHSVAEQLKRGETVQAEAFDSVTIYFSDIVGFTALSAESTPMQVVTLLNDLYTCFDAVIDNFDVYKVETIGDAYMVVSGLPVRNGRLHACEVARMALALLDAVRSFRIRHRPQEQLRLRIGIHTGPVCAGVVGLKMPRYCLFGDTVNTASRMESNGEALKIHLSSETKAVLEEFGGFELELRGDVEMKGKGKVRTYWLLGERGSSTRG
Test: cGMP elevating activity in CHO/human GC-A cells (Test Example 1)
Assay type: cell-based
In short: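 CHO cells stably expressing human GC-A, pre-incubated 10 min at room temperature in 1.6 mM IBMX/KRB, then exposed to test peptide 15 min in CO2 incubator. Lysate cGMP measured by HTRF. Activity (T/C) scaled so solvent-only = 0 and 1 nM ANP = 1.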

Compound: CC[C@H](C)[C@@H]1NC(=O)[C@H](CCCNC(=N)N)NC(=O)[C@H](CC(=O)O)NC(=O)[C@H](CCSC)NC(=O)[C@H](CCCNC(=N)N)NC(=O)CNC(=O)CNC(=O)[C@H](Cc2ccccc2)NC(=O)[C@@H](NC(=O)[C@H](CO)NC(=O)[C@H](CO)NC(=O)[C@H](CCCNC(=N)N)NC(=O)[C@H](CCCNC(=N)N)NC(=O)[C@H](CC(C)C)NC(=O)[C@H](CO)NC(=O)CCOCCOCCOCCOCCNC(=O)CO[C@@H]2O[C@H](CO)[C@@H](O[C@@H]3O[C@H](CO)[C@@H](O[C@@H]4O[C@H](CO[C@H]5O[C@H](CO)[C@@H](O)[C@H](O)[C@@H]5O[C@@H]5O[C@H](CO)[C@@H](O[C@@H]6O[C@H](CO[C@]7(C(=O)O)C[C@H](O)[C@@H](NC(C)=O)[C@H]([C@H](O)[C@H](O)CO)O7)[C@H](O)[C@H](O)[C@H]6O)[C@H](O)[C@H]5NC(C)=O)[C@@H](O)[C@H](O[C@H]5O[C@H](CO)[C@@H](O)[C@H](O)[C@@H]5O[C@@H]5O[C@H](CO)[C@@H](O[C@@H]6O[C@H](CO[C@]7(C(=O)O)C[C@H](O)[C@@H](NC(C)=O)[C@H]([C@H](O)[C@H](O)CO)O7)[C@H](O)[C@H](O)[C@H]6O)[C@H](O)[C@H]5NC(C)=O)[C@@H]4O)[C@H](O)[C@H]3NC(C)=O)[C@H](O)[C@H]2NC(C)=O)CSSC[C@@H](C(=O)N[C@@H](CC(N)=O)C(=O)N[C@@H](CO)C(=O)N[C@@H](Cc2ccccc2)C(=O)N[C@@H](CCCNC(=N)N)C(=O)N[C@@H](Cc2ccc(O)cc2)C(=O)NCCOCCOCCOCCOCCC(=O)NCCO[C@@H]2O[C@H](CO)[C@@H](O[C@@H]3O[C@H](CO)[C@@H](O[C@@H]4O[C@H](CO[C@H]5O[C@H](CO)[C@@H](O)[C@H](O)[C@@H]5O[C@@H]5O[C@H](CO)[C@@H](O[C@@H]6O[C@H](CO[C@]7(C(=O)O)C[C@H](O)[C@@H](NC(C)=O)[C@H]([C@H](O)[C@H](O)CO)O7)[C@H](O)[C@H](O)[C@H]6O)[C@H](O)[C@H]5NC(C)=O)[C@@H](O)[C@H](O[C@H]5O[C@H](CO)[C@@H](O)[C@H](O)[C@@H]5O[C@@H]5O[C@H](CO)[C@@H](O[C@@H]6O[C@H](CO[C@]7(C(=O)O)C[C@H](O)[C@@H](NC(C)=O)[C@H]([C@H](O)[C@H](O)CO)O7)[C@H](O)[C@H](O)[C@H]6O)[C@H](O)[C@H]5NC(C)=O)[C@@H]4O)[C@H](O)[C@H]3NC(C)=O)[C@H](O)[C@H]2NC(C)=O)NC(=O)CNC(=O)[C@H](CC(C)C)NC(=O)CNC(=O)[C@H](CO)NC(=O)[C@H](CCC(N)=O)NC(=O)[C@H](C)NC(=O)CNC1=O [Compound 2-24, SG-PEG(3)-hANP(1-28)-PEG(3)-SG]
- EC50: 0.54 nM

Compound: CC[C@H](C)[C@@H]1NC(=O)[C@H](CCCNC(=N)N)NC(=O)[C@H](CC(=O)O)NC(=O)[C@H](CCSC)NC(=O)[C@H](CCCNC(=N)N)NC(=O)CNC(=O)CNC(=O)[C@H](Cc2ccccc2)NC(=O)[C@@H](NC(=O)[C@H](CO)NC(=O)[C@H](CO)NC(=O)[C@H](CCCNC(=N)N)NC(=O)[C@H](CCCNC(=N)N)NC(=O)[C@H](CC(C)C)NC(=O)[C@H](CO)NC(=O)CCOCCOCCOCCOCCOCCOCCOCCOCCOCCOCCOCCOCCNC(=O)CCOCCOCCOCCOCCOCCOCCOCCOCCOCCOCCOCCOCCNC(=O)[C@H](CC(=O)N[C@@H]2O[C@H](CO)[C@@H](O[C@@H]3O[C@H](CO)[C@@H](O[C@@H]4O[C@H](CO[C@H]5O[C@H](CO)[C@@H](O)[C@H](O)[C@@H]5O[C@@H]5O[C@H](CO)[C@@H](O[C@@H]6O[C@H](CO[C@]7(C(=O)O)C[C@H](O)[C@@H](NC(C)=O)[C@H]([C@H](O)[C@H](O)CO)O7)[C@H](O)[C@H](O)[C@H]6O)[C@H](O)[C@H]5NC(C)=O)[C@@H](O)[C@H](O[C@H]5O[C@H](CO)[C@@H](O)[C@H](O)[C@@H]5O[C@@H]5O[C@H](CO)[C@@H](O[C@@H]6O[C@H](CO[C@]7(C(=O)O)C[C@H](O)[C@@H](NC(C)=O)[C@H]([C@H](O)[C@H](O)CO)O7)[C@H](O)[C@H](O)[C@H]6O)[C@H](O)[C@H]5NC(C)=O)[C@@H]4O)[C@H](O)[C@H]3NC(C)=O)[C@H](O)[C@H]2NC(C)=O)NC(=O)CO[C@@H]2O[C@H](CO)[C@@H](O[C@@H]3O[C@H](CO)[C@@H](O[C@@H]4O[C@H](CO[C@H]5O[C@H](CO)[C@@H](O)[C@H](O)[C@@H]5O[C@@H]5O[C@H](CO)[C@@H](O[C@@H]6O[C@H](CO[C@]7(C(=O)O)C[C@H](O)[C@@H](NC(C)=O)[C@H]([C@H](O)[C@H](O)CO)O7)[C@H](O)[C@H](O)[C@H]6O)[C@H](O)[C@H]5NC(C)=O)[C@@H](O)[C@H](O[C@H]5O[C@H](CO)[C@@H](O)[C@H](O)[C@@H]5O[C@@H]5O[C@H](CO)[C@@H](O[C@@H]6O[C@H](CO[C@]7(C(=O)O)C[C@H](O)[C@@H](NC(C)=O)[C@H]([C@H](O)[C@H](O)CO)O7)[C@H](O)[C@H](O)[C@H]6O)[C@H](O)[C@H]5NC(C)=O)[C@@H]4O)[C@H](O)[C@H]3NC(C)=O)[C@H](O)[C@H]2NC(C)=O)CSSC[C@@H](C(=O)N[C@@H](CC(N)=O)C(=O)N[C@@H](CO)C(=O)N[C@@H](Cc2ccccc2)C(=O)N[C@@H](CCCNC(=N)N)C(=O)N[C@@H](Cc2ccc(O)cc2)C(=O)O)NC(=O)CNC(=O)[C@H](CC(C)C)NC(=O)CNC(=O)[C@H](CO)NC(=O)[C@H](CCC(N)=O)NC(=O)[C@H](C)NC(=O)CNC1=O [Compound 2-28, SG-(SG-)Asn-PEG(11)-PEG(11)-hANP(1-28)]
- EC50: 0.31 nM

Compound: CC[C@H](C)[C@@H]1NC(=O)[C@H](CCCNC(=N)N)NC(=O)[C@H](CC(=O)O)NC(=O)[C@H](CCSC)NC(=O)[C@H](CCCNC(=N)N)NC(=O)CNC(=O)CNC(=O)[C@H](Cc2ccccc2)NC(=O)[C@@H](NC(=O)[C@H](CO)NC(=O)[C@H](CO)NC(=O)[C@H](CCCNC(=N)N)NC(=O)[C@H](CCCNC(=N)N)NC(=O)[C@H](CC(C)C)NC(=O)[C@H](CO)NC(=O)CNC(=O)CO[C@@H]2O[C@H](CO)[C@@H](O[C@@H]3O[C@H](CO)[C@@H](O[C@@H]4O[C@H](CO[C@H]5O[C@H](CO)[C@@H](O)[C@H](O)[C@@H]5O[C@@H]5O[C@H](CO)[C@@H](O[C@@H]6O[C@H](CO[C@]7(C(=O)O)C[C@H](O)[C@@H](NC(C)=O)[C@H]([C@H](O)[C@H](O)CO)O7)[C@H](O)[C@H](O)[C@H]6O)[C@H](O)[C@H]5NC(C)=O)[C@@H](O)[C@H](O[C@H]5O[C@H](CO)[C@@H](O)[C@H](O)[C@@H]5O[C@@H]5O[C@H](CO)[C@@H](O[C@@H]6O[C@H](CO[C@]7(C(=O)O)C[C@H](O)[C@@H](NC(C)=O)[C@H]([C@H](O)[C@H](O)CO)O7)[C@H](O)[C@H](O)[C@H]6O)[C@H](O)[C@H]5NC(C)=O)[C@@H]4O)[C@H](O)[C@H]3NC(C)=O)[C@H](O)[C@H]2O)CSSC[C@@H](C(=O)N[C@@H](CC(N)=O)C(=O)N[C@@H](CO)C(=O)N[C@@H](Cc2ccccc2)C(=O)N[C@@H](CCCNC(=N)N)C(=O)N[C@@H](Cc2ccc(O)cc2)C(=O)O)NC(=O)CNC(=O)[C@H](CC(C)C)NC(=O)CNC(=O)[C@H](CO)NC(=O)[C@H](CCC(N)=O)NC(=O)[C@H](C)NC(=O)CNC1=O [Compound 2-40, SG(Glc)-Gly-A-hANP(1-28)]
- EC50: 0.05 nM

Compound: [(SG2-)Cys-Gly]5-hANP(1-28) [Compound 2-18]
- EC50 (CHO/human GC-A cells, concentration at T/C=0.5, 15 minutes incubation, read-out: EC50): 48 nM
- Emax (maximum T/C in range 0.01-100 nM, solvent only = 0, 1 nM ANP = 1): 0.63

From US10947289B2, “Glyco-modified atrial natriuretic peptide” (priority 2013, dated 2021)
